Molecular target: T1, porcine pancreatic α-amylase (PPA) (Sus scrofa, UniProt P00690)
T1 construct: gene AMY2; native pancreatic enzyme
T1 sequence (P00690 16-511): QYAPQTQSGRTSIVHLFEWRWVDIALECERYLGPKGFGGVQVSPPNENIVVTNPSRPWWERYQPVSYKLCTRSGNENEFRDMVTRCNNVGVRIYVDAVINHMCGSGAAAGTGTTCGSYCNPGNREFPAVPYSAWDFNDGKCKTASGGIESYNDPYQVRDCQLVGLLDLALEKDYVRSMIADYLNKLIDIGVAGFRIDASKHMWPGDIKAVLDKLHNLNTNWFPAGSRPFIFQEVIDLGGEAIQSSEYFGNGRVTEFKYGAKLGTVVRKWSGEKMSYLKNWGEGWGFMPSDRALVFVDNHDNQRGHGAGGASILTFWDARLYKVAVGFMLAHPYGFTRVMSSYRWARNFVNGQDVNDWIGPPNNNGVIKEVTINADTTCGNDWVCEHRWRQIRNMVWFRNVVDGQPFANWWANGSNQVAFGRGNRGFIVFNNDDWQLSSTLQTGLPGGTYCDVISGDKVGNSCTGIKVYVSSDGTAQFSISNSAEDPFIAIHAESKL
Assay: starch-iodine colorimetric assay, […] nm
Assay type: biochemical
Conditions: read-out: α-Amylase IC50 (mg/mL) (converted)

IC50: 5.93 mM
SMILES: CCCCCCCCCCCCCCCC(=O)O [palmitic acid]
